Measurements published in patent US20130165343A1, “IDENTIFICATION OF MULTIGENE BIOMARKERS” (AVEO Pharmaceuticals, Inc., priority 2011, published 2013).

Key:
[1] = test system: BH murine tumor archive (HER2-dependent murine breast tumors); assay: Tumor response to rapamycin in subcutaneously transplanted BH archive murine breast tumors; type: in vivo, mouse; conditions: out of 66 tumors; 0.1 mg/kg daily, intraperitoneal injection
Excerpt: (§1) A genetically diverse population of more than 100 murine breast tumors (BH archive) was used to identify tumors that are sensitive to a drug of interest (responders) and tumors that are resistant to the same drug of interest (non-responders). The BH archive was established by in vivo propagation and cryopreservation of primary tumor material from more than 100 spontaneous murine breast tumors derived from engineered chimeric mice that develop HER2-dependent, inducible spontaneous breast tumors.
The BH archive of more than 100 tumors was produced essentially as follows. Primary tumor cells were isolated from the chimeric animals by physical disruption of the tumors using cell strainers. Typically 1×10^5 cells were mixed with Matrigel (50:50 by vol.) and injected subcutaneously into female NCr nu/nu mice. When these tumors grew to approximately 500 mm3, which typically required 2 to 4 weeks, they were collected for one further round of in vivo propagation, after which tumor material was cryopreserved in liquid nitrogen. […]
Tumors from the BH murine tumor archive were tested for sensitivity to treatment with rapamycin (also known as sirolimus, or RAPAMUNE®). […] Tumors were measured twice per week by a caliper, and tumor volume was calculated.

[2] = test system: BH murine tumor archive (HER2-dependent murine breast tumors); assay: Tumor response to tivozanib in subcutaneously transplanted BH archive murine breast tumors; type: in vivo, mouse
Excerpt: as §1
The BH archive of more than 100 tumors was produced essentially as follows. Primary tumor cells were isolated from the chimeric animals by physical disruption of the tumors using cell strainers. Typically 1×10^5 cells were mixed with Matrigel (50:50 by vol.) and injected subcutaneously into female NCr nu/nu mice. When these tumors grew to approximately 500 mm3, which typically required 2 to 4 weeks, they were collected for one further round of in vivo propagation, after which tumor material was cryopreserved in liquid nitrogen. To characterize the propagated and archived tumors, 1×10^5 cells from each individual tumor line were thawed and injected subcutaneously in BALB/c nude mice. When the tumors reached a mean size of 500 to 800 mm3, animals were sacrificed and tumors were surgically removed for further analysis.
Tumors in the BH murine tumor archive were tested for sensitivity to treatment with tivozanib. Evaluation of tumor response to this drug treatment was performed essentially as follows. Subcutaneously transplanted tumors were established by injecting physically disrupted tumor cells (mixed with Matrigel) into 6 week-old female BALB/c nude mice. When the tumors reached approximately 100-200 mm3, 20 tumor-bearing mice were randomized into two groups. Group 1 received vehicle. Group 2 received tivozanib at 5 mg/kg daily by oral gavage. Tumors were measured twice per week by a caliper, and tumor volume was calculated.
The variation in response was expected, because the mouse model tumors had been propagated from spontaneously arising tumors, and were therefore expected to contain differing sets of secondary de novo mutations that contributed to tumorogenesis. […] Tivozanib-sensitive tumors and tivozanib-resistant tumors were identified (classified) on the basis of tumor growth inhibition, histopathology and IHC (CD31).

[3] = out of 25 tumors, 5 mg/kg tivozanib, classified by tumor growth inhibition, histopathology and IHC (CD31)

Structure (SMILES)	number of rapamycin-resistant tumors (50% tumor growth inhibition or less) [1]	number of rapamycin-sensitive tumors (more than 50% tumor growth inhibition) [1]	tumor progression (by caliper measurement) in tivozanib-sensitive tumors ([2]; 5 mg/kg daily by oral gavage, BALB/c nude mice, tivozanib-sensitive tumors)	tumor killing in tivozanib-sensitive tumors ([2]; 5 mg/kg, tivozanib-sensitive tumors, histopathology)	number of tumors actually resistant [2, 3]	number of tumors actually sensitive [2, 3]
CO[C@H]1C[C@@H]2CC[C@@H](C)[C@@](O)(O2)C(=O)C(=O)N2CCCC[C@H]2C(=O)O[C@H]([C@H](C)C[C@@H]2CC[C@@H](O)[C@H](OC)C2)CC(=O)[C@H](C)/C=C(\C)[C@@H](O)[C@@H](OC)C(=O)[C@H](C)C[C@H](C)/C=C/C=C/C=C/1C [rapamycin]	25	41				
COc1cc2nccc(Oc3ccc(NC(=O)Nc4cc(C)on4)c(Cl)c3)c2cc1OC [tivozanib]			no tumor progression	close to complete tumor killing, except for the peripheries	16	9
